Source: patent US9416115B2, “Fused heterocyclic compounds as ion channel modulators” (Gilead Sciences, Inc., priority 2013, dated 2016)
Where two headings read alike, the source gives them in different places.

Assays:
[1] = biological target: wild-type human cardiac sodium channel, hNav1.5 (Homo sapiens, UniProt Q14524); assay: Peak INa screening assay (tonic block and use-dependent block); type: cell-based
Summary of the method: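 HEK293 cells stably expressing hNav1.5 (no beta subunits), automated whole-cell patch clamp at 23-25° C, 40 mM Na+ bath (choline substitution), pH 7.35. Compound at 1 or 3 μM, added twice then 200 s equilibration; tonic block by steps to −20 mV from −100 mV at 0.1 Hz, use-dependent block at pulse 50 of a 3 Hz train, rundown-corrected versus compound-free.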

hNav1.1 (SCN1A) = hNav1.1 (SCN1A) (Homo sapiens, UniProt P35498); assay: Use-dependent inhibition of the CNS Nav1.1 sodium channel; type: cell-based; conditions: use-dependent block, 25 Hz, pulse 20, read-out: Nav1.1 UDB 25 Hz 10 uM
Experimental: HEK-293 cells stably expressing wild-type (WT) hNav1.1 (SCN1A, NCBI# AB09354) were obtained from Millipore (Cat. # CYL3009) were used to record INa. Cells are maintained with standard tissue culture procedures and stable channel expression is maintained with 400 ug/mL G418 in the culture medium. Unless otherwise noted, all reagents are purchased from Sigma-Aldrich (St Louis, Mo., U.S.A.).
Assays measuring Use-Dependent Block (UDB) of Nav1.2 are performed on an automated electrophysiology platform, QPatch 16X or QPatch HT (Sophion Bioscience, Copenhagen, Denmark), using the whole cell patch clamp technique to measure currents through the cell membrane. Series resistance compensation is set to 100% and series resistance and whole-cell compensation are performed automatically. Currents stored in the Sophion Bioscience Oracle database (Sophion Bioscience, Copenhagen, Denmark). Analysis is performed using QPatch Assay software and data are compiled in Excel 2010 (Microsoft, Seattle, Wash., U.S.A.).
The internal (pipette) solution consists of (in mM) 105 CsF, 10 NaF, 20 CsCl, 2 EGTA, 10 HEPES, 10 Dextrose with a pH of 7.35 and osmolarity of 300 mOsmol/kg. The external (bath) solution contains in (mM): 145 NaCl, 4 KCl, 1.8 CaCl2, 1 MgCl2, 10 dextrose, 10 HEPES, with a pH of 7.35 and osmolarity of 310 mOsmol/kg. Experiments are carried out at 23-25° C.
Compound stocks are routinely made by the Gilead Sample Bank in vials to 10 mM in dimethyl sulfoxide (DMSO). In some cases, when compounds are not soluble in DMSO, they are made in 100% ethanol. Stocks are sonicated as necessary. […]
Cells are allowed to stabilize for 10 min after establishment of the whole-cell configuration before current is measured. The test compound is applied 2 times at 60 second intervals. After the second compound addition, a 200 second wait period was imposed to allow for equilibration. Leak currents are subtracted by using an online P/4 procedure and all currents are low-pass Bessel filtered at 5 kHz and digitized at […].
Use-dependent block of Nav1.2 peak current is measured during pulse number 20 of a voltage pulse train (0 mV, 20 ms, 20 pulses, 25 Hz) from a holding potential of −120 mV. Currents are normalized to the peak current recorded in response to the first pulse in each frequency train. The voltage protocol for UDB was performed in the absence and presence of compound and percentage inhibition was calculated with respect to the compound free condition. Results are presented as mean percentage inhibition and data analysis is performed using QPatch Assay Software 4.0, and Excel 2002 (Microsoft, Seattle, Wash., U.S.A.).

[2] = tonic block of Peak INa, 0.1 Hz, holding -100 mV, read-out: Peak TB 3 uM
[3] = use-dependent block of Peak INa, 3 Hz, pulse 50, read-out: Peak UDB 3 Hz 3 uM

wild-type human cardiac sodium channel, hNav1.5, sequence (Q14524 whole entry): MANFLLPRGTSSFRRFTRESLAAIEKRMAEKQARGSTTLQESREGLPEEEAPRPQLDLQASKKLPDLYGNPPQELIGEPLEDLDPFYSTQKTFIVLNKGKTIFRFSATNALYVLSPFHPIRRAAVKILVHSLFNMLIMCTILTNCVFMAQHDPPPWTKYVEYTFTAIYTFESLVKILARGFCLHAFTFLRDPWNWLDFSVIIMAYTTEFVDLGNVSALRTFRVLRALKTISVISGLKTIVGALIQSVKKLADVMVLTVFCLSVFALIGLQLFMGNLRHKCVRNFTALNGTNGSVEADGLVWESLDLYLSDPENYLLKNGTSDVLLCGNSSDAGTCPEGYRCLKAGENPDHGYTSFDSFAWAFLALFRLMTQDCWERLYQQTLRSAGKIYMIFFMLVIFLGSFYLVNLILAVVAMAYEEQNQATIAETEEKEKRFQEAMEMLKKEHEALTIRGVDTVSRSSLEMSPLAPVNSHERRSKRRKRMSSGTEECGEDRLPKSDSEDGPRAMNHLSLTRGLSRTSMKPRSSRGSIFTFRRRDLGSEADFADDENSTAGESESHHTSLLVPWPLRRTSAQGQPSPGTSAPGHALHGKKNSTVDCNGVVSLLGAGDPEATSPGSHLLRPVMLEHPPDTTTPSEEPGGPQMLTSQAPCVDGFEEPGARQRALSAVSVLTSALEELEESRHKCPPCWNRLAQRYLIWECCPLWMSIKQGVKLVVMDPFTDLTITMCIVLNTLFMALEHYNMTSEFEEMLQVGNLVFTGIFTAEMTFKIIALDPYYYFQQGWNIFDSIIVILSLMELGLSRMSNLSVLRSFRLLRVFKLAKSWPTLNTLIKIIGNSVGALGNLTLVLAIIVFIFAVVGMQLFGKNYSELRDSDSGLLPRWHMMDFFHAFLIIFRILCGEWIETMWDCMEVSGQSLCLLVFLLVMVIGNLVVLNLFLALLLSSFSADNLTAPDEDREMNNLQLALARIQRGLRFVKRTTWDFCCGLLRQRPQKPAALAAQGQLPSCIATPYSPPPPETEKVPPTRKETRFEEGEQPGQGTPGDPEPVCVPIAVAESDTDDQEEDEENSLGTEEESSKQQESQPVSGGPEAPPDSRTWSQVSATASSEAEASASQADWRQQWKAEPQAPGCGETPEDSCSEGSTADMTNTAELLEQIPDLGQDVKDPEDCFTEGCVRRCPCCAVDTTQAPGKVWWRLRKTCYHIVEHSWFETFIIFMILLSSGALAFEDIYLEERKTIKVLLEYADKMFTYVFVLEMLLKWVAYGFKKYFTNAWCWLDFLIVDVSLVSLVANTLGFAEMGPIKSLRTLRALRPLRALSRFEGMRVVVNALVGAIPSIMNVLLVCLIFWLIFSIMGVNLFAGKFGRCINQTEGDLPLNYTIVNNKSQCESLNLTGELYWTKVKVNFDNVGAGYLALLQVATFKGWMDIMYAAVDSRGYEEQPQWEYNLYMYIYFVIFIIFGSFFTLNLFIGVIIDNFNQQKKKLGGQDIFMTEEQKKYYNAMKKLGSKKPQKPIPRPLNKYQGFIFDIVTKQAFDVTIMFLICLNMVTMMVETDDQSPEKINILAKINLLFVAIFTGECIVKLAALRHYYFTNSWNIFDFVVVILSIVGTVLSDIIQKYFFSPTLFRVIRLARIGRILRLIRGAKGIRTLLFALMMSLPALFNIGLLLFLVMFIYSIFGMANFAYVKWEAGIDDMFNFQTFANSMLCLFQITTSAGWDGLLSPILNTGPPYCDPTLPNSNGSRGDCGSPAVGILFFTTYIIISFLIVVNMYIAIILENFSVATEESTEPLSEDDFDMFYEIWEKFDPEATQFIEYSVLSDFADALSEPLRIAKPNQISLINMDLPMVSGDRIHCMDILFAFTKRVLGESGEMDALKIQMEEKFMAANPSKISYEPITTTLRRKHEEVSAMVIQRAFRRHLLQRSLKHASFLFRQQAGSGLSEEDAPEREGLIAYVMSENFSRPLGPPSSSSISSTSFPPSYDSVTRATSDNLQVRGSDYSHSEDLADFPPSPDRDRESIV

FC(F)(F)Oc1ccc(-c2ccc3onc(OCCn4cncn4)c3c2)cc1 [Example 58, 3-(2-(1H-1,2,4-triazol-1-yl)ethoxy)-5-(4-(trifluoromethoxy)phenyl)benzo[d]isoxazole]
inhibition at 3 µM [1, 2]: 22.2%
inhibition at 3 µM [1, 3]: < 5%
inhibition at 10 µM (hNav1.1 (SCN1A)): 43.5%

O=C1CCCN1CCOc1noc2ccc(-c3ccc(OC(F)(F)F)cc3)cc12 [Example 59, 1-(2-((5-(4-(trifluoromethoxy)phenyl)benzo[d]isoxazol-3-yl)oxy)ethyl)pyrrolidin-2-one]
inhibition at 3 µM [1, 2]: 19%
inhibition at 3 µM [1, 3]: < 5%
inhibition at 10 µM (hNav1.1 (SCN1A)): 46.9%

COCCOc1noc2ccc(-c3ccc(OC(F)(F)F)cc3)cc12 [Example 60, 3-(2-methoxyethoxy)-5-(4-(trifluoromethoxy)phenyl)benzo[d]isoxazole]
inhibition at 3 µM [1, 2]: 30.6%
inhibition at 3 µM [1, 3]: < 5%
inhibition at 10 µM (hNav1.1 (SCN1A)): 27%

COc1ccnc(COc2noc3ccc(-c4ccc(OC(F)(F)F)cc4)cc23)n1 [Example 67, 3-((4-methoxypyrimidin-2-yl)methoxy)-5-(4-(trifluoromethoxy)phenyl)benzo[d]isoxazole]
inhibition at 3 µM [1, 2]: 48.7%
inhibition at 3 µM [1, 3]: < 5%
inhibition at 10 µM (hNav1.1 (SCN1A)): 5.26%

CC(COc1noc2ccc(-c3ccc(OC(F)(F)F)cc3)cc12)n1cccn1 (stereo not drawn) [Example 68, 3-(2-(1H-pyrazol-1-yl)propoxy)-5-(4-(trifluoromethoxy)phenyl)benzo[d]isoxazole]
inhibition at 3 µM [1, 2]: 10.5%
inhibition at 3 µM [1, 3]: < 5%
inhibition at 10 µM (hNav1.1 (SCN1A)): < 5%

CN1CCC[C@H]1COc1noc2ccc(-c3ccc(OC(F)(F)F)cc3)cc12 [Example 71, (S)-3-((1-methylpyrrolidin-2-yl)methoxy)-5-(4-(trifluoromethoxy)phenyl)benzo[d]isoxazole]
inhibition at 3 µM [1, 2]: 61.1%
inhibition at 3 µM [1, 3]: 44.4%
inhibition at 10 µM (hNav1.1 (SCN1A)): 93.8%

O=C1NCC[C@H]1Oc1noc2ccc(-c3ccc(OC(F)(F)F)cc3)cc12 [Example 72, (R)-3-((5-(4-(trifluoromethoxy)phenyl)benzo[d]isoxazol-3-yl)oxy)pyrrolidin-2-one]
inhibition at 3 µM [1, 2]: 17.7%
inhibition at 3 µM [1, 3]: 10.8%
inhibition at 10 µM (hNav1.1 (SCN1A)): 78.1%

Cc1cnc(COc2noc3ccc(-c4ccc(OC(F)(F)F)cc4)cc23)cn1 [Example 73, 3-((5-methylpyrazin-2-yl)methoxy)-5-(4-(trifluoromethoxy)phenyl)benzo[d]isoxazole]
inhibition at 3 µM [1, 2]: 41.9%
inhibition at 3 µM [1, 3]: < 5%
inhibition at 10 µM (hNav1.1 (SCN1A)): 10.1%

FC(F)(F)Oc1ccc(-c2ccc3onc(OCc4cccnn4)c3c2)cc1 [Example 74, 3-(pyridazin-3-ylmethoxy)-5-(4-(trifluoromethoxy)phenyl)benzo[d]isoxazole]
inhibition at 3 µM [1, 2]: 23.5%
inhibition at 3 µM [1, 3]: < 5%
inhibition at 10 µM (hNav1.1 (SCN1A)): < 5%

O=C1OCCN1CCOc1noc2ccc(-c3ccc(OC(F)(F)F)cc3)cc12 [Example 75, 3-(2-((5-(4-(trifluoromethoxy)phenyl)benzo[d]isoxazol-3-yl)oxy)ethyl)oxazolidin-2-one]
inhibition at 3 µM [1, 2]: 36.9%
inhibition at 3 µM [1, 3]: < 5%
inhibition at 10 µM (hNav1.1 (SCN1A)): 34.2%

Cc1cc(-c2ccc(OC(F)(F)F)cc2)cc2c(OCc3cn(C)nn3)noc12 [Example 87, 7-methyl-3-((1-methyl-1H-1,2,3-triazol-4-yl)methoxy)-5-(4-(trifluoromethoxy)phenyl)benzo[d]isoxazole]
inhibition at 3 µM [1, 2]: 54.7%
inhibition at 3 µM [1, 3]: 39%
inhibition at 10 µM (hNav1.1 (SCN1A)): 90.8%

Fc1cccnc1COc1noc2ccc(-c3ccc(OC(F)(F)F)cc3)cc12 [Example 94, 3-((3-fluoropyridin-2-yl)methoxy)-5-(4-(trifluoromethoxy)phenyl)benzo[d]isoxazole]
inhibition at 3 µM [1, 2]: 17.1%
inhibition at 3 µM [1, 3]: < 5%
inhibition at 10 µM (hNav1.1 (SCN1A)): < 5%

FC(F)(F)Oc1ccc(-c2ccc3onc(OCc4nnc(C5CC5)o4)c3c2)cc1 [Example 96, 3-((5-cyclopropyl-1,3,4-oxadiazol-2-yl)methoxy)-5-(4-(trifluoromethoxy)phenyl)benzo[d]isoxazole]
inhibition at 3 µM [1, 2]: 29.4%
inhibition at 3 µM [1, 3]: < 5%
inhibition at 10 µM (hNav1.1 (SCN1A)): 29.4%

Cc1nnc(COc2noc3ccc(-c4ccc(OC(F)(F)F)cc4)cc23)o1 [Example 99, 3-((5-methyl-1,3,4-oxadiazol-2-yl)methoxy)-5-(4-(trifluoromethoxy)phenyl)benzo[d]isoxazole]
inhibition at 3 µM [1, 2]: 55.6%
inhibition at 3 µM [1, 3]: < 5%
inhibition at 10 µM (hNav1.1 (SCN1A)): 30%

CC(C)c1nnc(COc2noc3ccc(-c4ccc(OC(F)(F)F)cc4)cc23)o1 [Example 100, 3-((5-isopropyl-1,3,4-oxadiazol-2-yl)methoxy)-5-(4-(trifluoromethoxy)phenyl)benzo[d]isoxazole]
inhibition at 3 µM [1, 2]: 23.5%
inhibition at 3 µM [1, 3]: < 5%
inhibition at 10 µM (hNav1.1 (SCN1A)): 9.9%

Cc1nnc(COc2noc3ccc(-c4ccc(OC(F)(F)F)cc4)cc23)s1 [Example 101, 3-((5-methyl-1,3,4-thiadiazol-2-yl)methoxy)-5-(4-(trifluoromethoxy)phenyl)benzo[d]isoxazole]
inhibition at 3 µM [1, 2]: 13.5%
inhibition at 3 µM [1, 3]: < 5%
inhibition at 10 µM (hNav1.1 (SCN1A)): < 5%

Cc1cc(COc2noc3ccc(-c4ccc(OC(F)(F)F)cc4)cc23)on1 [Example 102, 3-((3-methylisoxazol-5-yl)methoxy)-5-(4-(trifluoromethoxy)phenyl)benzo[d]isoxazole]
inhibition at 3 µM [1, 2]: 27.8%
inhibition at 3 µM [1, 3]: 7.7%
inhibition at 10 µM (hNav1.1 (SCN1A)): < 5%

N#CCOc1noc2ccc(-c3ccc(OC(F)(F)F)cc3)cc12 [Example 103, 2-((5-(4-(trifluoromethoxy)phenyl)benzo[d]isoxazol-3-yl)oxy)acetonitrile]
inhibition at 3 µM [1, 2]: 18.8%
inhibition at 3 µM [1, 3]: < 5%
inhibition at 10 µM (hNav1.1 (SCN1A)): 8.5%

Fc1cc(-c2ccc(OC(F)(F)F)cc2)cc2c(OCc3nnc(C4CC4)o3)noc12 [Example 104, 3-((5-cyclopropyl-1,3,4-oxadiazol-2-yl)methoxy)-7-fluoro-5-(4-(trifluoromethoxy)phenyl)benzo[d]isoxazole]
inhibition at 3 µM [1, 2]: 23.6%
inhibition at 3 µM [1, 3]: 19.8%
inhibition at 10 µM (hNav1.1 (SCN1A)): 53.1%

Cc1cc(-c2ccc(OC(F)(F)F)cc2)cc2c(OCc3nnc(C4CC4)o3)noc12 [Example 105, 3-((5-cyclopropyl-1,3,4-oxadiazol-2-yl)methoxy)-7-methyl-5-(4-(trifluoromethoxy)phenyl)benzo[d]isoxazole]
inhibition at 3 µM [1, 2]: 9.4%
inhibition at 3 µM [1, 3]: 27.8%
inhibition at 10 µM (hNav1.1 (SCN1A)): 75.7%

CC(=O)N1CCC[C@H]1COc1noc2ccc(-c3ccc(OC(F)(F)F)cc3)cc12 [Example 109, (S)-1-(2-(((5-(4-(trifluoromethoxy)phenyl)benzo[d]isoxazol-3-yl)oxy)methyl)pyrrolidin-1-yl)ethan-1-one]
inhibition at 3 µM [1, 2]: 14.5%
inhibition at 3 µM [1, 3]: < 5%
inhibition at 10 µM (hNav1.1 (SCN1A)): 57%

CC(=O)N1CC(COc2noc3ccc(-c4ccc(OC(F)(F)F)cc4)cc23)C1 [Example 110, 1-(3-(((5-(4-(trifluoromethoxy)phenyl)benzo[d]isoxazol-3-yl)oxy)methyl)azetidin-1-yl)ethan-1-one]
inhibition at 3 µM [1, 2]: 14.5%
inhibition at 3 µM [1, 3]: 11.5%
inhibition at 10 µM (hNav1.1 (SCN1A)): 77.7%

CC(C)(C)OC(=O)N1CCOC[C@H]1COc1noc2ccc(-c3ccc(OC(F)(F)F)cc3)cc12 [Example 111, tert-butyl(S)-3-(((5-(4-(trifluoromethoxy)phenyl)benzo[d]isoxazol-3-yl)oxy)methyl)morpholine-4-carboxylate]
inhibition at 3 µM [1, 2]: < 5%
inhibition at 3 µM [1, 3]: 7.3%
inhibition at 10 µM (hNav1.1 (SCN1A)): 50.4%

FC(F)(F)Oc1ccc(-c2ccc3onc(OC[C@@H]4COCCN4)c3c2)cc1 [Example 113, (S)-3-(morpholin-3-ylmethoxy)-5-(4-(trifluoromethoxy)phenyl)benzo[d]isoxazole]
inhibition at 3 µM [1, 2]: 54.3%
inhibition at 3 µM [1, 3]: 37.3%
inhibition at 10 µM (hNav1.1 (SCN1A)): 88.4%
